Tested on: 922993-354-T-J3-PDC complex spheroids, viability
Assay: Anticancer human tumor 922993-354-T-J3-PDC patient-derived endometrial carcinoma cell line growth inhibition [GQUAD]
Conditions: for IC50: curve of first compound; for viability, T/C: stronger effect = lower value
Method in brief: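 Multi-cell-type spheroids of tumor cells with HUVEC and mesenchymal stem cells, treated with drug combinations. Concentrations descend in half-log steps from near clinical Cmax, or from 10 microM where Cmax is unknown; viability read-out.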

[1] = second compound 0.0316 µM, first compound 0.0316 µM
[2] = second compound 0.0316 µM, first compound 0.1 µM
[3] = second compound 0.0316 µM, first compound 0.316 µM
[4] = second compound 0.0316 µM, first compound 1 µM
[5] = second compound 0.0316 µM, first compound 3.16 µM
[6] = second compound 0.0316 µM, first compound 10 µM
[7] = second compound 0.1 µM, first compound 0.0316 µM
[8] = second compound 0.1 µM, first compound 0.1 µM
[9] = second compound 0.1 µM, first compound 0.316 µM
[10] = second compound 0.1 µM, first compound 1 µM
[11] = second compound 0.1 µM, first compound 3.16 µM
[12] = second compound 0.1 µM, first compound 10 µM
[13] = second compound 0.316 µM, first compound 0.0316 µM
[14] = second compound 0.316 µM, first compound 0.1 µM
[15] = second compound 0.316 µM, first compound 0.316 µM
[16] = second compound 0.316 µM, first compound 1 µM
[17] = second compound 0.316 µM, first compound 3.16 µM
[18] = second compound 0.316 µM, first compound 10 µM
[19] = second compound 1 µM, first compound 0.0316 µM
[20] = second compound 1 µM, first compound 0.1 µM
[21] = second compound 1 µM, first compound 0.316 µM
[22] = second compound 1 µM, first compound 1 µM
[23] = second compound 1 µM, first compound 3.16 µM
[24] = second compound 1 µM, first compound 10 µM
[25] = second compound 3.16 µM, first compound 0.0316 µM
[26] = second compound 3.16 µM, first compound 0.1 µM
[27] = second compound 3.16 µM, first compound 0.316 µM
[28] = second compound 3.16 µM, first compound 1 µM
[29] = second compound 3.16 µM, first compound 3.16 µM
[30] = second compound 3.16 µM, first compound 10 µM
[31] = second compound 10 µM, first compound 0.0316 µM
[32] = second compound 10 µM, first compound 0.1 µM
[33] = second compound 10 µM, first compound 0.316 µM
[34] = second compound 10 µM, first compound 1 µM
[35] = second compound 10 µM, first compound 3.16 µM
[36] = second compound 10 µM, first compound 10 µM
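Also: spheroids exposed to compounds for seven days.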
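For viability, T/C in this document: 100% = DMSO vehicle control viability.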

Nc1ccn(C2OC(CO)C(O)C2(F)F)c(=O)n1 (centres undefined) + CN(C)c1ccc(Nc2c3ccc(NC(=O)CCN4CCCC4)cc3nc3cc(NC(=O)CCN4CCCC4)ccc23)cc1
IC50 (second compound 0.0316 µM): < 0.0316 µM
IC50 (second compound 0.1 µM): < 0.0316 µM
IC50 (second compound 0.316 µM): < 0.0316 µM
IC50 (second compound 1 µM): < 0.0316 µM
IC50 (second compound 3.16 µM): < 0.0316 µM
IC50 (second compound 10 µM): < 0.0316 µM
viability, T/C [1]: 13.6%
viability, T/C [2]: 14.7%
viability, T/C [3]: 11.9%
viability, T/C [4]: 16.6%
viability, T/C [5]: 10.6%
viability, T/C [6]: 12.7%
viability, T/C [7]: 13.4%
viability, T/C [8]: 13.2%
viability, T/C [9]: 12.2%
viability, T/C [10]: 10.8%
viability, T/C [11]: 10.4%
viability, T/C [12]: 11.9%
viability, T/C [13]: 13.9%
viability, T/C [14]: 9.77%
viability, T/C [15]: 10.7%
viability, T/C [16]: 13.1%
viability, T/C [17]: 9.83%
viability, T/C [18]: 11.2%
viability, T/C [19]: 12.5%
viability, T/C [20]: 8.2%
viability, T/C [21]: 12%
viability, T/C [22]: 13%
viability, T/C [23]: 12%
viability, T/C [24]: 11.8%
viability, T/C [25]: 13.8%
viability, T/C [26]: 11.6%
viability, T/C [27]: 16.8%
viability, T/C [28]: 12.2%
viability, T/C [29]: 11.3%
viability, T/C [30]: 13.3%
viability, T/C [31]: 15.8%
viability, T/C [32]: 11.4%
viability, T/C [33]: 11.6%
viability, T/C [34]: 14.4%
viability, T/C [35]: 11%
viability, T/C [36]: 11.3%

COc1cccc2c1C(=O)c1c(O)c3c(c(O)c1C2=O)CC(O)(C(=O)CO)CC3OC1CC(N)C(O)C(C)O1 (centres undefined) + Cc1[nH]c2ccc(F)cc2c1-c1nc2c3cccnc3c3ncccc3c2[nH]1
IC50 (second compound 0.0316 µM): 9.8 µM
IC50 (second compound 0.1 µM): > 10 µM
IC50 (second compound 0.316 µM): > 10 µM
IC50 (second compound 1 µM): > 10 µM
IC50 (second compound 3.16 µM): > 10 µM
IC50 (second compound 10 µM): 9.33 µM
viability, T/C [1]: 120%
viability, T/C [2]: 114%
viability, T/C [3]: 99.5%
viability, T/C [4]: 83.7%
viability, T/C [5]: 76.3%
viability, T/C [6]: 46.1%
viability, T/C [7]: 118%
viability, T/C [8]: 96%
viability, T/C [9]: 86.7%
viability, T/C [10]: 66.3%
viability, T/C [11]: 105%
viability, T/C [12]: 56.1%
viability, T/C [13]: 96.5%
viability, T/C [14]: 105%
viability, T/C [15]: 92.6%
viability, T/C [16]: 94.1%
viability, T/C [17]: 73.2%
viability, T/C [18]: 56.1%
viability, T/C [19]: 122%
viability, T/C [20]: 91.4%
viability, T/C [21]: 72.3%
viability, T/C [22]: 80.1%
viability, T/C [23]: 81.3%
viability, T/C [24]: 53.8%
viability, T/C [25]: 120%
viability, T/C [26]: 73.8%
viability, T/C [27]: 71.4%
viability, T/C [28]: 88.7%
viability, T/C [29]: 74.6%
viability, T/C [30]: 46.9%
viability, T/C [31]: 97.2%
viability, T/C [32]: 81.8%
viability, T/C [33]: 89%
viability, T/C [34]: 98.4%
viability, T/C [35]: 103%
viability, T/C [36]: 47.1%

Source: PubChem BioAssay AID2060489 (Molecular Pharmacology Branch, DTP, NCI, 2025)
